Measurements: publication PMC6121621, “A Short Half-Life αIIbβ3 Antagonist ANTP266 Reduces Thrombus Formation” (International Journal of Molecular Sciences, 2018)

Molecular target: T1, integrin αIIbβ3 (Homo sapiens, UniProt P05106+P08514)
T1 construct: gene ITGA2B; Purified human integrin αIIbβ3; with integrin β3 (ITGB3, P05106)
Assay: ELISA: inhibition of purified human αIIbβ[…] binding to immobilized fibrinogen

T1 sequence (P08514 32-887): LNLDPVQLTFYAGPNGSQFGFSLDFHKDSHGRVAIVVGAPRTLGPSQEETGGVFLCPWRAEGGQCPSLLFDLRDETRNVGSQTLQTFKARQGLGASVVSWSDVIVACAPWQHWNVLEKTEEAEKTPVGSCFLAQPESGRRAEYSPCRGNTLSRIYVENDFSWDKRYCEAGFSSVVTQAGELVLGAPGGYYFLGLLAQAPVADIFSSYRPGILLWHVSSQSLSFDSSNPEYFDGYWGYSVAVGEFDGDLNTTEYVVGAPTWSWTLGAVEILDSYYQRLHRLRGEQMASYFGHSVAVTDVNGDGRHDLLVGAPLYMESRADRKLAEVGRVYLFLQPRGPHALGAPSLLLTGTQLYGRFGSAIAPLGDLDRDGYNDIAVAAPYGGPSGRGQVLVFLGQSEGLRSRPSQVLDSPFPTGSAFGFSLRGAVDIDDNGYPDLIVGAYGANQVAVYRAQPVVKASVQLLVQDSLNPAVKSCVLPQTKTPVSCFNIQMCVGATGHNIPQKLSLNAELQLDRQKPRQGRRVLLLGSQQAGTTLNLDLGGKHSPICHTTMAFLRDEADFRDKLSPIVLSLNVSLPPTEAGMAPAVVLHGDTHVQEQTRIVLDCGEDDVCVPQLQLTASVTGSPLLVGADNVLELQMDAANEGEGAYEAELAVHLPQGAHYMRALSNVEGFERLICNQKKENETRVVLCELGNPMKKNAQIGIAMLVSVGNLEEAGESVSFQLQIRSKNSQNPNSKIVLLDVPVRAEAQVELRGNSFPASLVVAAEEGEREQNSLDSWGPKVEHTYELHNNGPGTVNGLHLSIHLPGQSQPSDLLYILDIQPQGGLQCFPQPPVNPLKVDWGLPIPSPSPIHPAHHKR
T1 sequence (P08514 891-1039): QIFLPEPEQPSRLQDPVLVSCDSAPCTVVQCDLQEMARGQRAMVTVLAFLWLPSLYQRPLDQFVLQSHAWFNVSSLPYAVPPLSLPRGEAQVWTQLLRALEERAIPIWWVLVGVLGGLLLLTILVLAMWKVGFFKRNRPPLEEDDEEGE
T1 sequence (P05106 27-788): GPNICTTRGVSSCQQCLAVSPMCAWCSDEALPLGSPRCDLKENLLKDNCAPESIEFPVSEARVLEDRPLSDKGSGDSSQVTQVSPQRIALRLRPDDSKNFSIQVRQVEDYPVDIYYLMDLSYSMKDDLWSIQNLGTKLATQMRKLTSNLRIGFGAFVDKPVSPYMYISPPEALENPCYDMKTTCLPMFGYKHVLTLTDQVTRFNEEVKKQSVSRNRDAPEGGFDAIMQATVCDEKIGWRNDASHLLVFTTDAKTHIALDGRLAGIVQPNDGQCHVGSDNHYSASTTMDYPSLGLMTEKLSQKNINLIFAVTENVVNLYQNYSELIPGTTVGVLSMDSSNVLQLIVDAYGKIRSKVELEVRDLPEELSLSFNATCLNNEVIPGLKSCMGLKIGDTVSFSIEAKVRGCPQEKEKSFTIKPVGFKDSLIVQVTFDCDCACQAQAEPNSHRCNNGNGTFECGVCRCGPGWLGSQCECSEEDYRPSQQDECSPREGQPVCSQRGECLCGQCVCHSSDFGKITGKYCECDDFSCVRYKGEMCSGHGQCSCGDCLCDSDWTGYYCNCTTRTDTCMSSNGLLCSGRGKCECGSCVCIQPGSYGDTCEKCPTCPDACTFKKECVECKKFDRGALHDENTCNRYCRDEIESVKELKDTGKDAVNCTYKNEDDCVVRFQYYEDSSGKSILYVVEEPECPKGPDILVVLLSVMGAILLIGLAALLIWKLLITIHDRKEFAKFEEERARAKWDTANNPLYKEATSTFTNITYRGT

- IC50: 370 nM
Compound: COc1ccc(S(=O)(=O)NC(Cc2ccc3cc(OCCN4CCNCC4)ccc3c2)C(=O)O)cc1 (stereo not shown) [ANTP266, 2-((4-methoxyphenyl)sulfonamido)-3-(6-(2-(piperazin-1-yl)ethoxy)naphthalene-2-yl) propanoic acid]
